These are literature values, as cited in patent US20030031651A1, “Methods and reagents for cell transplantation” (priority 2001, published 2003).

For the series, the system named is BMSCs. The following applies: BMSCs exposed to 5-azacytidine.

`Nc1ncn([C@@H]2O[C@H](CO)[C@@H](O)[C@H]2O)c(=O)n1` [5-azacytidine]: the “c-abl and interleukin-6 transcripts” value was “rapidly upregulate”; the “expression of collagen I” value was “downregulating”.
